Results on 1 compound are retold here after patent publication US20220054494A1, “METHODS FOR TREATING BLADDER AND URETHRA DYSFUNCTION AND DISEASE” (University of Pittsburgh - Of the Commonwealth System of …, priority 2019, published 2022).

Common to all, as to type: in vivo, rat
One assay has as its system bladder wall. Kind of assay: Bladder volume measurements (bladder wall volume / thickness). The protocol: Bladder volume measurements: Changes in bladder wall thickness in all groups (young, aged, and aged+treatment) were measured by placing displacement markers on the bladder surface (in situ) while volume measurements were recorded. Custom computer algorithms were used to calculate longitudinal, circumferential, and area strain from measurements of surface marker positions.

Another assay deals with parkin. Kind of assay: Western immunoblotting, parkin. As to conditions: aged rats; oral 8-AG 5 mg/kg/day, 6 weeks. The protocol:
(§1) Western immunoblotting: One half of each bladder preparation was homogenized using Lysing Matrix D in a FastPrep 24 instrument (MP Biomedicals, Solon, Ohio) in HBSS (5 mM KCl, 0.3 mM KH2PO4, 138 mM NaCl, 4 mM NaHO3, 0.3 mM Na2HCO3, 0.3 mM Na2HPO4, 5.6 mM glucose and 10 mM Hepes, pH 7.4) containing complete protease inhibitor cocktail (1 tablet/10 ml, ROCHE®, Indianapolis, Ind.)) and phosphatase inhibitor cocktail (SIGMA®, 1:100). After centrifugation (13000 rpm; 15 min at 4° C.), the membrane protein fraction was prepared by suspending the membrane pellets in lysis buffer containing 0.3 M NaCl, 50 mM Tris-HCl (pH 7.6) and 0.5% Triton X-100 and the same concentration of protease inhibitors as above. The suspensions were incubated on ice and centrifuged (13000 rpm; 15 min at 4° C.). The protein concentrations of the combined supernatants were determined using the PIERCE® BCA protein assay (THERMO SCIENTIFIC®, Rockford, Ill.). […] As a loading control, total protein per sample was determined using Bio-Rad® Stain Free SDS-PAGE gel technology. UV-activated protein fluorescence was imaged on a CHEMIDOC® MP (BIO-RAD®). […] The volume (intensity) of each protein species was determined and normalized to total protein using Image Lab software (BIO-RAD®).
(A western blot detects proteins with antibodies after separation by electrophoresis.)

A further assay has as its system nitrotyrosine. As to the kind of experiment: Western immunoblotting, nitrotyrosine. The note with it: aged rats; oral 8-AG 5 mg/kg/day, 6 weeks. The protocol: as §1
For the next assay, the system named is aged rats. As to the kind of experiment: Voiding analysis in metabolic cages, aged rats.
Where [1] appears, read: aged Fisher 344 rats, 8-AG 5 mg kg/day via drinking water, 1 month.

“Also recorded” adds a separate entry of the source.

On to `Nc1nc2[nH]c(N)nc2c(=O)[nH]1` [8-AG, 8-Aminoguanine], for which, in the assay with bladder wall (setting [1]), the bladder wall volume result is “restored to that of a younger state”. In the assay on bladder wall (aged rats, oral 8-AG 5 mg/kg/day, 6 weeks), the “bladder wall width / thickness” value is on record as “restored to that of a younger state”. Moreover, in the assay with parkin, the “parkin in bladder mucosa” value was “reversed or restored to levels similar to the younger state; also recorded: restored changes similar to a younger state”. Further, the urethral nitrotyrosine entry in the assay with nitrotyrosine is listed as “normalized to a younger state”. Besides, the intercontraction interval entry is given as “attenuates” with aged rats (aged Fischer 344 rats, oral 8-AG 5 mg/kg/day, 6 weeks) and “attenuates” in the assay with aged rats (setting [1]).
